Columns and labels:
HL-60(TB) = type: cell-based, human; conditions: Leukemia, 10 μM, 48 h
Protocol: The human tumor cell lines of the cancer screening panel were grown in RPMI 1640 medium containing 5% fetal bovine serum and 2 mM L-glutamine. For experimental screens, cells were inoculated into 96 well microtiter plates in 100 μL at plating densities ranging from 5,000 to 40,000 cells/well depending on the doubling time of individual cell lines. After cell inoculation, the microtiter plates were incubated at 37° C., 5% carbon dioxide, 95% air and 100% relative humidity for 24 hours prior to addition of the compounds.

MDA-MB-435 = assay: NCI DTP human tumor cell line screen (SRB); type: cell-based; conditions: Breast Cancer, 10 μM, 48 h
Protocol: (§1) Representative compounds of the invention, prepared as described in EXAMPLES 1-6, were submitted to the Developmental Therapeutics Program of the United States National Cancer Institute (NCl) to screen for anti-cancer activity. The anti-cancer activities of the six compounds were tested against approximately 60 human tumor cell lines representing leukemia, melanoma, and cancers of the lung, colon, breast, ovary, kidney, prostate, and brain. The following screening methodology was provided by the NCl. […] For experimental screens, cells were inoculated into 96 well microtiter plates in 100 μL at plating densities ranging from 5,000 to 40,000 cells/well depending on the doubling time of individual cell lines. After cell inoculation, the microtiter plates were incubated at 37° C., 5% carbon dioxide, 95% air and 100% relative humidity for 24 hours prior to addition of the compounds. After 24 hours of incubation, two plates of each cell line were fixed in situ with trichloroacetic acid (TCA) to represent a measurement of the cell population for each cell line at the time of compound addition (Tz). The compounds were solubilized in dimethyl sulfoxide at 400-fold the desired final maximum test concentration and stored frozen prior to use. At the time of drug addition, frozen aliquots of the compounds thawed and diluted with complete medium containing 50 μg/ml gentamicin. Aliquots of 100 μl of these different compound dilutions were added to the appropriate microtiter wells already containing 100 μl of medium, resulting in the required final compound concentration of 10 μM. Following compound addition, the plates were incubated for an additional 48 h at 37° C., 5% carbon dioxide, 95% air, and 100% relative humidity. For adherent cells, the assay was terminated by the addition of cold TCA. Cells were fixed in situ by the gentle addition of 50 μl of cold 50% (w/v) TCA (final concentration, 10% TCA) and incubated for 60 minutes at 4° C. The supernatant was discarded, and the plates were washed five times with tap water and air dried. Sulforhodamine B (SRB) solution (100 μl) at 0.4% (w/v) in 1% acetic acid was added to each well, and plates were incubated for 10 minutes at room temperature. After staining, unbound dye was removed by washing five times with 1% acetic acid and the plates were air dried. Bound stain was subsequently solubilized with 10 mM trizma base, and the absorbance was read on an automated plate reader at a wavelength of 515 nm. For suspension cells, the methodology was the same except that the assay was terminated by fixing settled cells at the bottom of the wells by gently adding 50 μl of 80% TCA (final concentration, 16% TCA). Using the three absorbance measurements [time zero, (Tz), control growth, (C), and test growth in the presence of compound (Ti)], the percentage growth was calculated at each of the compound concentrations levels. Percentage growth inhibition was calculated with the following algorithms: [(Ti−Tz)/(C−Tz)]×100 for concentrations for which Ti>/=Tz [(Ti−Tz)/Tz]×100 for concentrations for which Ti<Tz The results of the NCl in vitro anticancer screening with six compounds against various human tumor cell lines are presented below in Tables 2-7. […] The growth percent mean, delta, and range for each compound are given below.

OVCAR-4 = assay: NCI DTP human tumor cell line screen (SRB); type: cell-based; conditions: Ovarian Cancer, 10 μM, 48 h
Protocol: as §1

A498 = assay: NCI DTP human tumor cell line screen (SRB); type: cell-based; conditions: Renal Cancer, 10 μM, 48 h
Protocol: as §1

HCT-116 = assay: NCI DTP human tumor cell line screen (SRB); type: cell-based; conditions: Colon Cancer, 10 μM, 48 h
Protocol: as §1

SK-MEL-28 = assay: NCI DTP human tumor cell line screen (SRB); type: cell-based; conditions: Melanoma, 10 μM, 48 h
Protocol: as §1

BT-549 = assay: NCI DTP human tumor cell line screen (SRB); type: cell-based; conditions: Breast Cancer, 10 μM, 48 h
Protocol: as §1

MDA-MB-231/ATCC = assay: NCI DTP human tumor cell line screen (SRB); type: cell-based; conditions: Breast Cancer, 10 μM, 48 h
Protocol: as §1

HS 578T = assay: NCI DTP human tumor cell line screen (SRB); type: cell-based; conditions: Breast Cancer, 10 μM, 48 h
Protocol: as §1

HCC-2998 = assay: NCI DTP human tumor cell line screen (SRB); type: cell-based; conditions: Colon Cancer, 10 μM, 48 h
Protocol: as §1

MCF7 = assay: NCI DTP human tumor cell line screen (SRB); type: cell-based; conditions: Breast Cancer, 10 μM, 48 h
Protocol: as §1

CAKI-1 = assay: NCI DTP human tumor cell line screen (SRB); type: cell-based; conditions: Renal Cancer, 10 μM, 48 h
Protocol: as §1

SNB-75 = assay: NCI DTP human tumor cell line screen (SRB); type: cell-based; conditions: CNS Cancer, 10 μM, 48 h
Protocol: as §1

SK-MEL-5 = assay: NCI DTP human tumor cell line screen (SRB); type: cell-based; conditions: Melanoma, 10 μM, 48 h
Protocol: as §1

COLO 205 = assay: NCI DTP human tumor cell line screen (SRB); type: cell-based; conditions: Colon Cancer, 10 μM, 48 h
Protocol: as §1

OVCAR-5 = assay: NCI DTP human tumor cell line screen (SRB); type: cell-based; conditions: Ovarian Cancer, 10 μM, 48 h
Protocol: as §1

CCRF-CEM = assay: NCI DTP human tumor cell line screen (SRB); type: cell-based; conditions: Leukemia, 10 μM, 48 h
Protocol: as §1

T-47D = assay: NCI DTP human tumor cell line screen (SRB); type: cell-based; conditions: Breast Cancer, 10 μM, 48 h
Protocol: as §1

SF-295 = assay: NCI DTP human tumor cell line screen (SRB); type: cell-based; conditions: CNS Cancer, 10 μM, 48 h
Protocol: as §1

NCI-H226 = assay: NCI DTP human tumor cell line screen (SRB); type: cell-based; conditions: Non-Small Cell Lung Cancer, 10 μM, 48 h
Protocol: as §1

PC-3 = assay: NCI DTP human tumor cell line screen (SRB); type: cell-based; conditions: Prostate Cancer, 10 μM, 48 h
Protocol: as §1

SF-539 = assay: NCI DTP human tumor cell line screen (SRB); type: cell-based; conditions: CNS Cancer, 10 μM, 48 h
Protocol: as §1

SF-268 = assay: NCI DTP human tumor cell line screen (SRB); type: cell-based; conditions: CNS Cancer, 10 μM, 48 h
Protocol: as §1

K-562 = assay: NCI DTP human tumor cell line screen (SRB); type: cell-based; conditions: Leukemia, 10 μM, 48 h
Protocol: as §1

SN12C = assay: NCI DTP human tumor cell line screen (SRB); type: cell-based; conditions: Renal Cancer, 10 μM, 48 h
Protocol: as §1

UACC-62 = assay: NCI DTP human tumor cell line screen (SRB); type: cell-based; conditions: Melanoma, 10 μM, 48 h
Protocol: as §1

NCI-H23 = assay: NCI DTP human tumor cell line screen (SRB); type: cell-based; conditions: Non-Small Cell Lung Cancer, 10 μM, 48 h
Protocol: as §1

OVCAR-8 = assay: NCI DTP human tumor cell line screen (SRB); type: cell-based; conditions: Ovarian Cancer, 10 μM, 48 h
Protocol: as §1

U251 = assay: NCI DTP human tumor cell line screen (SRB); type: cell-based; conditions: CNS Cancer, 10 μM, 48 h
Protocol: as §1

HOP-62 = assay: NCI DTP human tumor cell line screen (SRB); type: cell-based; conditions: Non-Small Cell Lung Cancer, 10 μM, 48 h
Protocol: as §1

UACC-257 = assay: NCI DTP human tumor cell line screen (SRB); type: cell-based; conditions: Melanoma, 10 μM, 48 h
Protocol: as §1

SNB-19 = assay: NCI DTP human tumor cell line screen (SRB); type: cell-based; conditions: CNS Cancer, 10 μM, 48 h
Protocol: as §1

Row | SMILES | Growth Percent (HL-60(TB)) [%] | Growth Percent (MDA-MB-435) [%] | Growth Percent (OVCAR-4) [%] | Growth Percent (A498) [%] | Growth Percent (HCT-116) [%] | Growth Percent (SK-MEL-28) [%] | Growth Percent (BT-549) [%] | Growth Percent (MDA-MB-231/ATCC) [%] | Growth Percent (HS 578T) [%] | Growth Percent (HCC-2998) [%] | Growth Percent (MCF7) [%] | Growth Percent (CAKI-1) [%] | Growth Percent (SNB-75) [%] | Growth Percent (SK-MEL-5) [%] | Growth Percent (COLO 205) [%] | Growth Percent (OVCAR-5) [%] | Growth Percent (CCRF-CEM) [%] | Growth Percent (T-47D) [%] | Growth Percent (SF-295) [%] | Growth Percent (NCI-H226) [%] | also measured
1 | CC1CCC2C(C)C(OCc3ccc(C(=O)NN=Cc4ccccc4O)o3)OC3OC4(C)CCC1C32OO4 (centres unmarked) [ART-Furan-Sal, N′-(2-hydroxybenzylidene)-5-(dihydroxyartemisinin-methyl)-furan-2-carbohydrazide] | −43.79 | 25.70 | 12.86 | 12.88 | 13.81 | 16.46 | 22.47 | 31.58 | 40.07 | 5.37 | 1.18 | 17.44 | −17.31 | −46.62 | 18.60 | 28.70 | −23.63 | 10.28 | 12.70 | 13.93 | Growth Percent (PC-3): 28.01%; Growth Percent (SF-539): −11.48%; Growth Percent (SF-268): −0.43%; Growth Percent (K-562): 8.79%; Growth Percent (SN12C): 27.18%; Growth Percent (UACC-62): −5.97%; Growth Percent (NCI-H23): 17.54%; Growth Percent (OVCAR-8): 17.07%; Growth Percent (U251): 12.24%; Growth Percent (HOP-62): 12.94%; Growth Percent (UACC-257): 9.72%; Growth Percent (SNB-19): 25.11%
2 | CC1CCC2C(C)C(OCc3ccc(C(=O)NN=Cc4ccccc4)cc3)OC3OC4(C)CCC1C32OO4 (centres unmarked) [ART-Phe-Bz, N′-(benzylidene)-4-(dihydroxyartemisinin-methyl)-phenyl carbohydrazide] | −49.40 | 12.48 | 18.29 | 30.47 | 5.59 | 45.74 | 14.60 | 26.78 | 34.12 | 22.05 | 11.63 | 5.53 | 0.39 | 2.01 | 17.72 | 28.19 | 6.71 | 11.51 | 14.30 | 29.10 | Growth Percent (PC-3): 12.32%; Growth Percent (SF-539): 25.70%; Growth Percent (SF-268): 35.30%; Growth Percent (K-562): 7.86%; Growth Percent (SN12C): 23.38%; Growth Percent (UACC-62): 24.51%; Growth Percent (NCI-H23): 30.10%; Growth Percent (OVCAR-8): 26.65%; Growth Percent (U251): 36.35%; Growth Percent (HOP-62): 52.14%; Growth Percent (UACC-257): 25.96%; Growth Percent (SNB-19): 51.29%
3 | Cc1ncc(CO)c(C=NNC(=O)c2ccc(COC3OC4OC5(C)CCC6C(C)CCC(C3C)C46OO5)cc2)c1O (centres unmarked) [ART-Phe-Pyridoxal, N′-(5-hydroxy-3-hydroxymethyl-2-methyl-4-pyridylidene)-4-(dihydroxyartemisinin-methyl)-phenyl carbohydrazide] | −4.98 | 18.74 | 21.42 | −36.78 | 15.30 | −7.02 | −18.57 | 29.96 | −15.69 | 27.38 | 1.55 | −12.33 | 42.44 | −43.83 | −4.40 | 44.98 | 2.34 | −2.71 | 25.08 | 4.49 | Growth Percent (PC-3): 31.12%; Growth Percent (SF-539): −20.49%; Growth Percent (SF-268): 1.39%; Growth Percent (K-562): 22.86%; Growth Percent (SN12C): 16.82%; Growth Percent (UACC-62): −8.10%; Growth Percent (NCI-H23): 13.86%; Growth Percent (OVCAR-8): 31.40%; Growth Percent (U251): 17.87%; Growth Percent (HOP-62): 20.25%; Growth Percent (UACC-257): 1.40%; Growth Percent (SNB-19): 4.26%
4 | CC1CCC2C(C)C(OCc3ccc(C(=O)NN=Cc4ccccc4O)cc3)OC3OC4(C)CCC1C32OO4 (centres unmarked) [ART-Phe-Sal, N′-(2-hydroxybenzylidene)-4-(dihydroxyartemisinin-methyl)-phenyl carbohydrazide] | −54.70 | 15.04 | 17.87 | 0.33 | 13.24 | 22.75 | 25.29 | 47.38 | 29.71 | 37.90 | 12.70 | 11.04 | −16.75 | −56.71 | 26.59 | 49.55 | −19.45 | 34.12 | −2.87 | 10.80 | Growth Percent (PC-3): 31.46%; Growth Percent (SF-539): −18.69%; Growth Percent (SF-268): 10.84%; Growth Percent (K-562): 8.87%; Growth Percent (SN12C): 25.25%; Growth Percent (UACC-62): −17.63%; Growth Percent (NCI-H23): 31.01%; Growth Percent (OVCAR-8): 24.17%; Growth Percent (U251): 17.18%; Growth Percent (HOP-62): 12.31%; Growth Percent (UACC-257): 22.90%; Growth Percent (SNB-19): 27.53%

From patent US7692030B2, “Conjugates of artemisinin-related endoperoxides and hydrazone derivatives for the treatment of cancer” (University of Washington, priority 2006, dated 2010)
